# According to PMC7883289, “Synthesis of Paeonol-Ozagrel Conjugate: Structure Characterization and In Vivo Anti-Ischemic Stroke potential” (Frontiers in Pharmacology, 2021):
# Tests used:
# [1] = tested on: middle cerebral artery occlusion (MCAO) rats; assay: Measurement of infarct volume by TTC staining in MCAO rats; format: in vivo; settings: 24 h after reperfusion, single iv dose: paeonol and OS 3 mg/kg, POC 4.5 mg/kg, n = 6
# Description: Male Sprague Dawley (SD) rats weighing among 220 g-230 g (Anhui Medicine University, Hefei, China; certificate number: SCXK20190,003) were housed under ad libitum access to food and water with a standardized light-dark cycle condition (25 ± 2°C, 12-hour light/dark cycle). All the experimental protocols were performed in accordance with the Institutional Animal Care and Use Committee of Anhui University of Chinese Medicine (Animal ethics number: AHUCM-rats-2019001). We used the minimal number of study animals (n = 6 rats in each group for different experiments). The rats were fastened upon the operating table in a supine position after being anesthetized with 2% pelltobarbitalum natricum (50 mg/kg). After disinfection of the skin within close proximity of the operative region, the right common carotid artery (CCA), external carotid artery (ECA) and internal carotid artery (ICA) were exposed with blunt dissection. The CCA was temporarily ligated and the ECA were permanently ligated ([Liu et al., 2016]). A nylon monofilament surgical thread was introduced into the ICA to block the MCA when the blunted distal end met resistance. After 2 h of occlusion, reperfusion was accomplished to restore blood supply to the MCA area by removing the filament ([Li et al., 2009]; [Zhai et al., 2017]). […] Rats were split randomly into five groups, including the sham, model, paeonol, OS and POC group. After 2 h of reperfusion, the paeonol and OS groups received the drug by intravenous injection at a single dose of 3 mg/kg ([Imamura et al., 2003]; [Park et al., 2010]; [Gai et al., 2019]), which the doses of paeonol and OS uesd previously were benificial in rats and the dose of OS is within the clinical dose range. […] Cerebral infarction volume was determined using TTC staining. […] The infarction and total brain volume were quantified using ImageJ software. The infarct volume was calculated as a ratio of the infarcted tissue relative to the total area of the whole-brain coronal section ([Ye and Gao, 2008]; [Katayama et al., 2017]). […]
# [2] = tested on: middle cerebral artery occlusion (MCAO) rats; assay: Evaluation of neurological deficit (Longa score) in MCAO rats; format: in vivo; settings: 24 h after reperfusion, single iv dose 2 h after reperfusion: paeonol and OS 3 mg/kg, POC 4.5 mg/kg, n = 6
# Description: Male Sprague Dawley (SD) rats weighing among 220 g-230 g (Anhui Medicine University, Hefei, China; certificate number: SCXK20190,003) were housed under ad libitum access to food and water with a standardized light-dark cycle condition (25 ± 2°C, 12-hour light/dark cycle). All the experimental protocols were performed in accordance with the Institutional Animal Care and Use Committee of Anhui University of Chinese Medicine (Animal ethics number: AHUCM-rats-2019001). We used the minimal number of study animals (n = 6 rats in each group for different experiments). The rats were fastened upon the operating table in a supine position after being anesthetized with 2% pelltobarbitalum natricum (50 mg/kg). After disinfection of the skin within close proximity of the operative region, the right common carotid artery (CCA), external carotid artery (ECA) and internal carotid artery (ICA) were exposed with blunt dissection. The CCA was temporarily ligated and the ECA were permanently ligated ([Liu et al., 2016]). A nylon monofilament surgical thread was introduced into the ICA to block the MCA when the blunted distal end met resistance. After 2 h of occlusion, reperfusion was accomplished to restore blood supply to the MCA area by removing the filament ([Li et al., 2009]; [Zhai et al., 2017]). […] Rats were split randomly into five groups, including the sham, model, paeonol, OS and POC group. […] Neurological deficit was evaluated 24 h after reperfusion (blinded to experimenters). […] The rating score was assessed by the following standard: no neurological deficit, 0; failure to extend left forepaw fully, one; spontaneous circling to the left, two; falling to the left, three; inability to walk spontaneously and coma of consciousness, 4. […] Neurological scores for each group were calculated using six rats according to a sample size calculation (α err prob = 0.05, 1-β err prob = 0.95) and references ([Katayama et al., 2017]; [[…] al., 2019]; [Zheng et al., 2019]).
compound,measurement,setting,value
"O=C([O-])/C=C/c1ccc(Cn2ccnc2)cc1.[Na+] [OS, Ozagrel sodium]",cerebral infarction volume percentage,[1],18.68% ± 1.35
same,"neurological deficits score (Longa, 0-4)",[2],2.00 ± 0.63
COc1ccc(C(C)=O)c(O)c1 [paeonol],cerebral infarction volume percentage,[1],20.87% ± 1.43
same,"neurological deficits score (Longa, 0-4)",[2],2.50 ± 0.55
